Organism: Rattus norvegicus
Experiment: DrugMatrix - Regimen: Daily Repeat
Type: toxicity, organism-based, Sprague-Dawley
Set-up: regimen Daily Repeat, gender Male, age 6-8 weeks
Settings: in vivo, 0 mg/kg, dose level Control
[1] = po, 72 h, tissue Blood, route oral GAVAGE, time 3 day, vehicle 100 % WATER
[2] = po, 72 h, tissue Plasma, route oral GAVAGE, time 3 day, vehicle 100 % WATER
[3] = po, 120 h, tissue Blood, route oral GAVAGE, time 5 day, vehicle 100 % WATER
[4] = po, 120 h, tissue Plasma, route oral GAVAGE, time 5 day, vehicle 100 % WATER
[5] = iv, 72 h, tissue Blood, time 3 day, vehicle 100 % SALINE
[6] = iv, 72 h, tissue Plasma, time 3 day, vehicle 100 % SALINE
[7] = iv, 120 h, tissue Blood, time 5 day, vehicle 100 % SALINE
[8] = iv, 120 h, tissue Plasma, time 5 day, vehicle 100 % SALINE

## CADMIUM ACETATE
[1]
  ABSOLUTE BASOPHIL: 0 CELLS/uL
  ABSOLUTE EOSINOPHIL: 0 CELLS/uL
  ABSOLUTE LYMPHOCYTE: 10386.33 CELLS/uL
  ABSOLUTE MONOCYTE: 88.5 CELLS/uL
  ABSOLUTE SEGMENTED NEUTROPHIL: 1008.5 CELLS/uL
  BASOPHIL: 0%
  EOSINOPHIL: 0%
  ERYTHROCYTE COUNT: 5.16 x10E6/uL
  HEMATOCRIT: 32.43%
  HEMOGLOBIN: 12.98 G/DL
  LEUKOCYTE COUNT: 11.48 x10E3/uL
  LYMPHOCYTE: 92.33%
  MEAN CORPUSCULAR HEMOGLOBIN: 25.23 pg
  MEAN CORPUSCULAR HEMOGLOBIN CONCENTRATION: 40.08 G/DL
  MEAN CORPUSCULAR VOLUME: 62.95 fL
  MONOCYTE: 0.67%
  NEUTROPHIL: 7%
  NUCLEATED RED BLOOD CELLS: 0 /100WBC
  PLATELET COUNT: 1016.67 x10E3/uL
[2]
  ALANINE AMINOTRANSFERASE: 62.17 u/L
  ALBUMIN: 3.95 G/DL
  ALKALINE PHOSPHATASE: 363.5 u/L
  ASPARTATE AMINOTRANSFERASE: 118 u/L
  BLOOD UREA NITROGEN: 14.5 mg/dL
  CARBON DIOXIDE: 22.83 mmol/L
  CHOLESTEROL: 66 mg/dL
  CREATINE PHOSPHOKINASE: 1308.83 u/L
  CREATININE: 0.22 mg/dL
  GLUCOSE: 187.5 mg/dL
  LACTATE DEHYDROGENASE: 380.17 u/L
  LIPASE: 16.17 u/L
  PHOSPHORUS: 14.27 mg/dL
  POTASSIUM: 6.8 MEQ/L
  TOTAL BILIRUBIN: 0.2 mg/dL
  TOTAL PROTEIN: 5.68 G/DL
  URIC ACID: 2.87 mg/dL
[3]
  ABSOLUTE BASOPHIL: 0 CELLS/uL
  ABSOLUTE EOSINOPHIL: 80 CELLS/uL
  ABSOLUTE LYMPHOCYTE: 13301.33 CELLS/uL
  ABSOLUTE MONOCYTE: 180.83 CELLS/uL
  ABSOLUTE SEGMENTED NEUTROPHIL: 1187.83 CELLS/uL
  BASOPHIL: 0%
  EOSINOPHIL: 0.5%
  ERYTHROCYTE COUNT: 5.54 x10E6/uL
  HEMATOCRIT: 35.65%
  HEMOGLOBIN: 14.22 G/DL
  LEUKOCYTE COUNT: 14.75 x10E3/uL
  LYMPHOCYTE: 90.67%
  MEAN CORPUSCULAR HEMOGLOBIN: 25.65 pg
  MEAN CORPUSCULAR HEMOGLOBIN CONCENTRATION: 39.88 G/DL
  MONOCYTE: 1%
  NEUTROPHIL: 7.83%
  NUCLEATED RED BLOOD CELLS: 0.17 /100WBC
  PLATELET COUNT: 1285.33 x10E3/uL
[4]
  ALANINE AMINOTRANSFERASE: 51.67 u/L
  ALKALINE PHOSPHATASE: 391.5 u/L
  ASPARTATE AMINOTRANSFERASE: 99.5 u/L
  BLOOD UREA NITROGEN: 15.5 mg/dL
  CARBON DIOXIDE: 28.33 mmol/L
  CHOLESTEROL: 67.83 mg/dL
  CREATINE PHOSPHOKINASE: 771.33 u/L
  CREATININE: 0.23 mg/dL
  GLUCOSE: 156.5 mg/dL
  LACTATE DEHYDROGENASE: 544.33 u/L
  LIPASE: 10.17 u/L
  PHOSPHORUS: 12.03 mg/dL
  POTASSIUM: 6.81 MEQ/L
  TOTAL BILIRUBIN: 0.22 mg/dL
  TOTAL PROTEIN: 6 G/DL
  URIC ACID: 2.18 mg/dL

## LIPOPOLYSACCHARIDE E. COLI O55:B5
[5]
  ABSOLUTE BASOPHIL: 0 CELLS/uL
  ABSOLUTE EOSINOPHIL: 33.67 CELLS/uL
  ABSOLUTE LYMPHOCYTE: 12123.5 CELLS/uL
  ABSOLUTE MONOCYTE: 243.5 CELLS/uL
  ABSOLUTE SEGMENTED NEUTROPHIL: 1282.67 CELLS/uL
  BASOPHIL: 0%
  EOSINOPHIL: 0.33%
  ERYTHROCYTE COUNT: 5.18 x10E6/uL
  HEMATOCRIT: 32.63%
  LEUKOCYTE COUNT: 13.68 x10E3/uL
  LYMPHOCYTE: 88.67%
  MEAN CORPUSCULAR HEMOGLOBIN: 24.98 pg
  NEUTROPHIL: 9.17%
  NUCLEATED RED BLOOD CELLS: 0.17 /100WBC
  PLATELET COUNT: 1114.5 x10E3/uL
[6]
  ALANINE AMINOTRANSFERASE: 46.17 u/L
  ALKALINE PHOSPHATASE: 374.67 u/L
  ASPARTATE AMINOTRANSFERASE: 89.33 u/L
  BLOOD UREA NITROGEN: 14.83 mg/dL
  CARBON DIOXIDE: 25.67 mmol/L
  CHOLESTEROL: 63.5 mg/dL
  CREATINE PHOSPHOKINASE: 494.67 u/L
  CREATININE: 0.17 mg/dL
  LACTATE DEHYDROGENASE: 269.33 u/L
  PHOSPHORUS: 11.27 mg/dL
  POTASSIUM: 5.85 MEQ/L
  TOTAL BILIRUBIN: 0.18 mg/dL
  TOTAL PROTEIN: 5.87 G/DL
  URIC ACID: 1.28 mg/dL
[7]
  ABSOLUTE BASOPHIL: 0 CELLS/uL
  ABSOLUTE EOSINOPHIL: 24.67 CELLS/uL
  ABSOLUTE LYMPHOCYTE: 11832.83 CELLS/uL
  ABSOLUTE MONOCYTE: 279.67 CELLS/uL
  ABSOLUTE SEGMENTED NEUTROPHIL: 1446.17 CELLS/uL
  BASOPHIL: 0%
  EOSINOPHIL: 0.17%
  ERYTHROCYTE COUNT: 5.61 x10E6/uL
  HEMATOCRIT: 35.02%
  HEMOGLOBIN: 13.82 G/DL
  LEUKOCYTE COUNT: 13.58 x10E3/uL
  LYMPHOCYTE: 87.67%
  MEAN CORPUSCULAR HEMOGLOBIN: 24.68 pg
  MONOCYTE: 2%
  NEUTROPHIL: 10.17%
  NUCLEATED RED BLOOD CELLS: 0 /100WBC
  PLATELET COUNT: 1178.17 x10E3/uL
[8]
  ALANINE AMINOTRANSFERASE: 52.83 u/L
  ALKALINE PHOSPHATASE: 370 u/L
  ASPARTATE AMINOTRANSFERASE: 100.5 u/L
  BLOOD UREA NITROGEN: 15.17 mg/dL
  CARBON DIOXIDE: 28.83 mmol/L
  CHOLESTEROL: 69.5 mg/dL
  CREATINE PHOSPHOKINASE: 488.67 u/L
  CREATININE: 0.23 mg/dL
  GLUCOSE: 165 mg/dL
  LACTATE DEHYDROGENASE: 502.17 u/L
  LIPASE: 11 u/L
  PHOSPHORUS: 11.7 mg/dL
  POTASSIUM: 5.85 MEQ/L
  TOTAL BILIRUBIN: 0.18 mg/dL

— ChEMBL document CHEMBL3885881, “DrugMatrix”
